Laboratory results published in article PMC9958131 (Nature Communications, 2023).
No end group written: not given here. *: point of attachment. Cam = NC(=O)C*

What was measured:
PAD2 / PAD4 = experiment: Citrullination site mapping of fibrinogen and vimentin by trypsin digestion, protein-level sheet (native, PAD2- and PAD4-citrullinated samples searched together); format: biochemical, Homo sapiens; details: deamidated Arg (= citrullinated) positions found by Sequest HT after trypsin digestion; one list for all six samples (native, PAD2-, PAD4-citrullinated fibrinogen and vimentin); co-purified/contaminant proteins
From the text: (§1) Description: Raw mass spectrometry data for proteolytic mapping of fibrinogen, vimentin, and hnRNP A2/B1 by cathepsins B, S, and H (sheets 1-6); citrullination site mapping of fibrinogen and vimentin by trypsin digestion (sheets 7-8); and the natural antigen processing assay with native, PAD2-citrullinated (PAD2-cit), and PAD4-citrullinated (PAD4-cit) fibrinogen (sheets 9-11).

PAD2 and PAD4 = experiment: Citrullination site mapping of fibrinogen and vimentin by trypsin digestion and mass spectrometry (protein-level sheet, one search over native, PAD2-cit and PAD4-cit samples); format: biochemical, human; details: modified residues found per protein; Deamidated [R..] = deamidated (citrullinated) arginine positions; trypsin digest, Sequest HT; not split by sample (native, PAD2-citrullinated, PAD4-citrullinated fibrinogen and vimentin)
From the text: as §1

[1] = system: recombinant human PAD2 and PAD4; experiment: Citrullination site mapping by trypsin digestion and mass spectrometry; protein-level modifications over native, PAD2- and PAD4-citrullinated samples combined; format: biochemical; details: trypsin digest, Sequest HT search; co-identified proteins in the fibrinogen and vimentin samples (native, PAD2-cit, PAD4-cit); not split by sample or enzyme
From the text: as §1

cathepsins B, S, and H = experiment: Proteolytic mapping (ProtMap) of native and citrullinated autoantigens by cathepsins B, S, and H with LFQ-MS; format: biochemical, human; details: sites found over all samples of the cathepsin B, H digests, MSFragger search
Description: Prior to proteolytic mapping, citrullinated antigens were generated by incubating recombinant human antigens—hnRNP A2/B1 (RA33; custom-made as previously described by in ref. [24]), fibrinogen (Cayman Chemical), and vimentin (PeproTech)—with Sf9-purified peptidylarginine deiminase 2 or 4 (PAD2 or PAD4; Inova) at a 17:1 mass ratio in citrullination buffer (100 mM Tris, 1 mM DTT, 5 mM CaCl2, pH 7.5) for 4 h at 37 °C. Native antigens were diluted in the same buffer without PAD enzymes and without incubation at 37 °C to prevent degradation. Citrullination was confirmed by anti-peptidylcitrulline (clone F95, EMD Millipore) immunoblotting. […] The resulting peptide repertoires were then analyzed by LFQ–MS.
Prior to MS, the samples were reduced and alkylated by incubating in 10 mM Tris (2-Carboxyethyl) phosphine hydrochloride (TCEP, v/v) and 50 mM chloroacetamide (CAA, v/v) for 1 h at room temperature. […] The peptide samples were analyzed on an Orbitrap Fusion Lumos Tribrid mass spectrometer interfaced with an Ultimate 3000 RS Autosampler nanoflow liquid chromatography system (Thermo Scientific). […] The most intense ions with charge states of 2–5 were isolated in a 3-s cycle, fragmented using higher-energy collisional dissociation (HCD) fragmentation with 32% normalized collision energy, and detected at a mass resolution of 50,000 at an m/z of 200. […]

Substance: P22090 (LREC(Cam)LPLIVFLR) [Peptide P22090]
- Modifications (PAD2 / PAD4): Deamidated [R39]

Substance: Q14525 (EVEQWFATQTEELNK) [Peptide Q14525]
- Modifications (PAD2 and PAD4): Deamidated [R293]

Substance: P01876 [Peptide P01876]
- Modifications (PAD2 and PAD4): Deamidated [R253; R263; R273]

Substance: P01024 [Peptide P01024]
- Modifications (PAD2 and PAD4): Deamidated [R315; R386; R462; R710; R712; R1134; R1507; R1512; R1532; R1582]

Substance: Tubulin beta-2A chain
- Modifications (Deamidated [R...] = citrullinated arginine positions found) [1]: Deamidated [R2; R121]

Substance: Clusterin
- Modifications (Deamidated [R...] = citrullinated arginine positions found) [1]: Deamidated [R306; R425]

Substance: P04264 (GGGFGGGGIGGGGFGG) [Peptide P04264]
- Modifications (PAD2 and PAD4): Deamidated [R29; R65; R239; R267; R277; R386; R432; R483; R518; R549]

Substance: Interleukin-8
- Modifications (Deamidated [R...] = citrullinated arginine positions found) [1]: Deamidated [R74]

Substance: P35527 (GGGGGGGLGSGGSIRSSY) [Peptide P35527]
- Modifications (PAD2 and PAD4): Deamidated [R95; R163; R233; R250; R261; R327; R374; R427]

Substance: A0A4W9A917 [Peptide A0A4W9A917]
- Modifications (PAD2 and PAD4): Deamidated [R365]

Substance: P01834 [Peptide P01834]
- Modifications (PAD2 and PAD4): Deamidated [R1]

Substance: Filaggrin-2
- Modifications (Deamidated [R...] = citrullinated arginine positions found) [1]: Deamidated [R63]

Substance: P02751 [Peptide P02751]
- Modifications (PAD2 and PAD4): Deamidated [R83; R107; R114; R130; R155; R156; R241; R252; R265; R272; R290; R479; R694; R784; R1157; R1197; R1473; R1525; R1543; R1664; R1844; R1909; R1950; R1982; R2165; R2335; R2340; R2357; R2417; R2426; R2447; R2451]

Substance: P13645 (LQIDNARLAADDF) [Peptide P13645]
- Modifications (PAD2 and PAD4): Deamidated [R15; R35; R156; R228; R245; R256; R322; R333; R399; R441; R450]

Substance: Pre-mRNA-processing-splicing factor 8
- Modifications (Deamidated [R...] = citrullinated arginine positions found) [1]: Deamidated [R362]

Substance: P04259 (ATGGGLSSVGGGSSTIK) [Peptide P04259]
- Modifications (PAD2 and PAD4): Deamidated [R182; R222; R326; R369]

Substance: P04275 (IDVPWNVVPEK) [Peptide P04275]
- Modifications (PAD2 and PAD4): Deamidated [R236; R768; R782; R816; R906; R945; R1204; R1205; R1597; R1641; R1853; R1888; R1916; R1921; R1924; R1943; R1956; R1998; R2099; R2185; R2464; R2535; R2663; R2681; R2730]

Substance: P35908 (GPGGFGPGGYPGGIHE) [Peptide P35908]
- Modifications (PAD2 and PAD4): Deamidated [R45; R122; R221; R238; R247; R341; R384; R524; R544]

Substance: MYLNVIINNTWQGDFSQIKVFLMTLKNMISKLKTECGCQFTSKLEGMFRDMSISNTTMDEFRQHLQATGVSLGGVDLTVRVLTTGYWPTQSATPKCNIPPAPRHAFEIFRRFYLAKHSGRQLTLQHHMGSADLNATFYGPVKKEDGSEVGVGGAQVTGSNTRKHILQVSTFQMTILMLFNNREKYTFEEIQQETDIPERELVRALQSLACGKPTQRVLTKEPKSKEIENGHIFTVNDQFTSKLHRVKIQTVAAKQGESDPERKETRQKVDDDRKHEIEAAIVRIMKSRKKMQHNVLVAEVTQQLKARFLPSPVVIKKRIEGLIEREYLARTPEDRKVYTYVA [Peptide A0A087WTG3]
- Modifications (PAD2 / PAD4): Deamidated [R283]

Substance: P48668 (QC(Cam)ASLQAAIADAEQR) [Peptide P48668]
- Modifications (PAD2 and PAD4): Deamidated [R182; R222; R326]

Substance: P23142 (VRPIVGPFH) [Peptide P23142]
- Modifications (PAD2 and PAD4): Deamidated [R90; R179; R181; R287; R289; R343; R353; R467; R561; R562; R582; R642]

Substance: P08779 [Peptide P08779]
- Modifications (PAD2 and PAD4): Deamidated [R127; R284; R441]; Met-loss+Acetyl [N-Term]

Substance: P49771 (LLQETSEQLVALKPWITR; also: deamidated, site not given here) [Peptide P49771]
- Modifications (PAD2 and PAD4): Deamidated [R81; R85; R100; R147]

Substance: P17661 (VELQELNDRFANYIEKVR; also: deamidated, site not given here) [Peptide P17661]
- Modifications (PAD2 and PAD4): Deamidated [R118; R386]

Substance: P62269 (IPDWFLNRQK; also: deamidated, site not given here) [Peptide P62269]
- Modifications (PAD2 / PAD4): Deamidated [R86]

Substance: Hornerin
- Modifications (Deamidated [R...] = citrullinated arginine positions found) [1]: Deamidated [R1507; R2447; R3930]

Substance: P41219 (EYQELLNVK) [Peptide P41219]
- Modifications (PAD2 and PAD4): Deamidated [R397]

Substance: Glyceraldehyde-3-phosphate dehydrogenase
- Modifications (Deamidated [R...] = citrullinated arginine positions found) [1]: Deamidated [R80]

Substance: P02768 [Peptide P02768]
- Modifications (PAD2 and PAD4): Deamidated [R105; R122; R138; R141; R169; R281; R434; R452; R469; R509]

Substance: Tubulin beta chain
- Modifications (Deamidated [R...] = citrullinated arginine positions found) [1]: Deamidated [R2; R121; R156; R162]

Substance: Serotransferrin
- Modifications (Deamidated [R...] = citrullinated arginine positions found) [1]: Deamidated [R239]

Substance: Q15323 (LNVEVDAAPTVDLNR) [Peptide Q15323]
- Modifications (PAD2 and PAD4): Deamidated [R293]

Substance: Heat shock cognate 71 kDa protein
- Modifications (Deamidated [R...] = citrullinated arginine positions found) [1]: Deamidated [R323]

Substance: Vimentin: recombinant human vimentin (PeproTech), RA autoantigen; native or citrullinated by PAD2 or PAD4
- Modifications (PAD2 and PAD4): Deamidated [R13; R23; R28; R36; R45; R50; R64; R69; R71; R78; R100; R113; R122; R145; R155; R158; R159; R170; R175; R184; R186; R196; R207; R217; R222; R270; R273; R304; R310; R320; R321; R342; R345; R364; R378; R381; R401; R410; R424; R440; R450]
- Modifications (deamidated arginine = citrullinated sites detected) (cathepsins B, S, and H): Deamidated [R13; R23; R36; R64; R100; R113; R158; R175; R184; R196; R207; R270; R273; R304; R310; R364; R401; R410; R424; R440; R450]

Substance: P05160 (LIENGYFHPVK) [Peptide P05160]
- Modifications (PAD2 and PAD4): Deamidated [R69; R147; R271; R273; R380; R424; R432; R463; R507; R603]
